Test results from patent US9562035B2, “Benzamide derivative useful as FASN inhibitors for the treatment of cancer” (Janssen Pharmaceutica NV, priority 2013, dated 2017).

How the values were obtained:
A2780 ovarian cells [1] = test: A2780 Ovarian Cell Proliferation Assay in Lipid Reduced Medium, without Palmitate; type: cell-based; settings: Homo sapiens, A2780; lipid reduced medium, without palmitate, 96 h, MTT; read-out: Proliferation A2780 w/o Palmitate pIC50 (converted)
How it was run: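 A2780 cells were seeded in 10% FCS medium and switched next day to 10% lipid-reduced serum without palmitate. Compounds at 0.01–30 μM were added with 0.2% DMSO, 0.2% fatty-acid-free BSA and 0.25% ethanol final. After 96 h, MTT absorbance at 544 nm was normalized to plate controls, and IC50/pIC50 came from a 4-parameter logistic fit.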

[2] = biological target: T1, FASN Keto-reductase Domain (Homo sapiens, UniProt P49327); test: Fatty Acid Synthase Keto-Reductase Domain (FASN KR) Inhibition; type: biochemical; settings: mean where tested more than once; read-out: FASN K-R Domain pIC50 (converted)
T1 construct: 10 μL hFASN enzyme (full length, 300 ng, purified in house) and 360 μM NADPH; made in house
How it was run: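 Keto-reductase activity followed as NADPH consumption (A340 drop between 0 and 20 min, room temperature) using in-house full-length hFASN, 360 μM NADPH and ethyl acetoacetate substrate (180 mM stock), pH 7.5 phosphate buffer.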

[3] = biological target: T2, hFASN enzyme (full length) (Homo sapiens, UniProt P49327); test: Fatty Acid Synthase (FASN) Inhibition Scintillation Proximity Assay; type: biochemical; settings: for IC50: mean where tested more than once, ~ = standard error of pIC50 larger than 0.5; for inhibition at 10 µM: read-out: FASN % Effect @1E−05M
T2 construct: 10 μL hFASN enzyme (full length, 300 ng, purified in house); made in house
How it was run: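 Eight compound concentrations (0.01–30 μM) tested in pH 7.5 phosphate buffer with DTT; human full-length enzyme converted [3H]-acetyl-CoA plus malonyl-CoA, with NADPH, over 60 min at room temperature. Hydrophobic [3H]-palmitate detected by bead proximity scintillation imaging; control-normalised data fitted for IC50/pIC50.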

A2780 ovarian cells [4] = test: A2780 Ovarian Cell Proliferation Assay in Lipid Reduced Medium, with Palmitate (control); type: cell-based; settings: Homo sapiens, A2780; lipid reduced medium, 25 μM palmitate, 96 h, MTT; read-out: Proliferation A2780 with Palmitate pIC50 (converted)
How it was run: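 Read-out was MTT absorbance at 544 nm after 96 h at 37 °C. Cells grown overnight in RPMI1640/10% FCS were moved to 10% lipid-reduced serum with compound plus palmitate (final 25 μM, 0.2% fatty-acid-free BSA, 0.2% DMSO). IC50 came from least-squares curve fitting, expressed as −log(IC50).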

T2 sequence (P49327 whole entry): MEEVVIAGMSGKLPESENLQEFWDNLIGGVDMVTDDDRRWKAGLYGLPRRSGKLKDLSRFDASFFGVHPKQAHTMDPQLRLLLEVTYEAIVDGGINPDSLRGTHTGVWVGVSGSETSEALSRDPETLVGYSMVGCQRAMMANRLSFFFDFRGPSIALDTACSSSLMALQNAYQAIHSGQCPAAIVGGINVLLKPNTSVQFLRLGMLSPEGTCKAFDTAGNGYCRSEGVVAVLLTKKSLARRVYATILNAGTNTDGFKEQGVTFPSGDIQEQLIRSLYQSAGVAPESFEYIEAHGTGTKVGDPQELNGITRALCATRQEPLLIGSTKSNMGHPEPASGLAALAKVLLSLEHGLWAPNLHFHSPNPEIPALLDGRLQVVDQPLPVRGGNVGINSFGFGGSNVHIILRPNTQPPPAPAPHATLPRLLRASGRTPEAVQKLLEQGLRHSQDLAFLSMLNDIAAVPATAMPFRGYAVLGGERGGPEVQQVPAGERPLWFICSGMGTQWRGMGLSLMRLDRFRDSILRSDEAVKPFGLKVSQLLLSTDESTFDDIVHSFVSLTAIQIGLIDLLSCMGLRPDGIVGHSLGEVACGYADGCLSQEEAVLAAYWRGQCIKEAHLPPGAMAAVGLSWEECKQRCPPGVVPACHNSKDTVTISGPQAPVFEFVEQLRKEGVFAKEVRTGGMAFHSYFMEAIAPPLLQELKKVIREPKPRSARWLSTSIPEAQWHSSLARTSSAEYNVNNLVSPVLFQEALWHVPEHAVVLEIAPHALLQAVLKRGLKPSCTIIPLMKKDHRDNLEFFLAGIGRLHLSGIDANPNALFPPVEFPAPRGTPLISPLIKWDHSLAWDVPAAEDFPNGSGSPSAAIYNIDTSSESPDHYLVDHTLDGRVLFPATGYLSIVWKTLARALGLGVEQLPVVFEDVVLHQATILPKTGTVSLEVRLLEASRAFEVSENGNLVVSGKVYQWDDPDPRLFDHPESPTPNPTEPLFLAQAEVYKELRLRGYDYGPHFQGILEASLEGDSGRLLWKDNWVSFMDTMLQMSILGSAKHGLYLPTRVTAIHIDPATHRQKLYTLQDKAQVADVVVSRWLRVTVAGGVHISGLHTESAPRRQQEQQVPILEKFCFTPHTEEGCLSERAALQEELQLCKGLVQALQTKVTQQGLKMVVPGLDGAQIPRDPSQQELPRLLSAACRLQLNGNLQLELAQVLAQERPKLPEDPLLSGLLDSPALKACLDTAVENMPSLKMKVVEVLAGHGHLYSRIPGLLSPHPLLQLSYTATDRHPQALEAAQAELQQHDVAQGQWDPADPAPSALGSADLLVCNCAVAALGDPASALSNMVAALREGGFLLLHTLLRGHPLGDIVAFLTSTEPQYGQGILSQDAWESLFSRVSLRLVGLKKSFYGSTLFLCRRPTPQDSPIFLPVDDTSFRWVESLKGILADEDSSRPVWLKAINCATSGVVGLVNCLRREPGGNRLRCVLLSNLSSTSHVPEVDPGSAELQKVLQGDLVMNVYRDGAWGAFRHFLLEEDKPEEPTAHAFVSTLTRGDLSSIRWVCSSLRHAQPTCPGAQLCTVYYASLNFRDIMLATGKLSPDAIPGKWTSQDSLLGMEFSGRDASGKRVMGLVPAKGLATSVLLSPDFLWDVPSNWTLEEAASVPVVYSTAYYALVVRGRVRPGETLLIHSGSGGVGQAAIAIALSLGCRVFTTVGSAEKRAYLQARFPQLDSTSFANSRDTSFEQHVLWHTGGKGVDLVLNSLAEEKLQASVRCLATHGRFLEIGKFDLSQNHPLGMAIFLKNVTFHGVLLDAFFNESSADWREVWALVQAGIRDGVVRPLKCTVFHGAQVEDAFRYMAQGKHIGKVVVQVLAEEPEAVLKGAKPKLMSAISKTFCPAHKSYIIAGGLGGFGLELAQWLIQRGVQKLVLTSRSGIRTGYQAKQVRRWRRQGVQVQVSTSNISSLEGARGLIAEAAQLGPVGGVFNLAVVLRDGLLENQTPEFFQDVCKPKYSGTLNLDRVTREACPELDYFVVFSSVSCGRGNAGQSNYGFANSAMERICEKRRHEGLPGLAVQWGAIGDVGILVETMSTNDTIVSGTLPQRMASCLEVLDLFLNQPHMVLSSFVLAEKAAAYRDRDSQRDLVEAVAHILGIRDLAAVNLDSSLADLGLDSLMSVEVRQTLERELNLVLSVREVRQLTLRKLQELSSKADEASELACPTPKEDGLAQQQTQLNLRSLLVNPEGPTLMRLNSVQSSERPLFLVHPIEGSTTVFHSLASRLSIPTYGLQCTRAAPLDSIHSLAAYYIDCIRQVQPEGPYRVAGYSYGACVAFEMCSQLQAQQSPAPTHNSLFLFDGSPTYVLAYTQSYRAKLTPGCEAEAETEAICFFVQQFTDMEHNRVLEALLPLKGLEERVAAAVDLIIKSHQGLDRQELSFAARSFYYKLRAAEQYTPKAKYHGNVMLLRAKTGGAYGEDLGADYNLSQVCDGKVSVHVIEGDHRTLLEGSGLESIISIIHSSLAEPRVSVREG
T1 sequence (P49327 whole entry, the tested form may be a part): as the sequence (P49327 whole entry) above

Row | Structure (SMILES) | IC50 (A2780 ovarian cells [1]) | IC50 [2] | IC50 [3] | inhibition at 10 µM [3] | IC50 (A2780 ovarian cells [4])
1 | Cc1ccc(C(=O)N2CCC(c3ccc(-c4cnn(C)c4)cc3)CC2)cc1NC(=O)C(C)C [Compound 156, N-(2-methyl-5-(4-(4-(1-methyl-1H-pyrazol-4-yl)phenyl)piperidine-1-carbonyl)phenyl)isobutyramide] | 0.275 µM | 0.263 µM | 0.107 µM | 100% | > 10 µM
2 | Cc1ccc(C(=O)Nc2cc(C(=O)N3CCC(c4ccc(-c5cnn(C)c5)cc4)CC3)ccc2C)s1 [Compound 157, 5-methyl-N-(2-methyl-5-(4-(4-(1-methyl-1H-pyrazol-4-yl)phenyl)piperidine-1-carbonyl)phenyl)thiophene-2-carboxamide] | 0.115 µM | 0.12 µM | 0.0427 µM | 104% | > 10 µM
3 | Cc1ccc(C(=O)N2CC(c3ccc(-c4cnn(C)c4)cc3)C2)cc1NC(=O)c1cnc(NC(C)C)nc1 [Compound 158, 2-(isopropylamino)-N-(2-methyl-5-(3-(4-(1-methyl-1H-pyrazol-4-yl)phenyl)azetidine-1-carbonyl)phenyl)pyrimidine-5-carboxamide] | 0.01 µM | 0.0372 µM | 0.0234 µM | 102% | > 10 µM
4 | Cc1ccc(C(=O)N2CC(c3ccc(-c4cnn(C)c4)cc3)C2)cc1NC(=O)c1cnc(N2CCOCC2)nc1 [Compound 159, N-(2-methyl-5-(3-(4-(1-methyl-1H-pyrazol-4-yl)phenyl)azetidine-1-carbonyl)phenyl)-2-morpholinopyrimidine-5-carboxamide] | ~0.00575 µM | 0.0339 µM | 0.0229 µM | 104% | > 10 µM
5 | Cc1ccc(C(=O)N2CCC(c3ccc(-c4cnn(C)c4)cc3)CC2)cc1NC(=O)c1ccc2[nH]ccc2c1 [Compound 160, N-(2-methyl-5-(4-(4-(1-methyl-1H-pyrazol-4-yl)phenyl)piperidine-1-carbonyl)phenyl)-1H-indole-5-carboxamide] | 0.0282 µM | 0.0912 µM | 0.0407 µM | 100% | 6.92 µM
6 | Cc1ccc(C(=O)N2CCC(c3ccc(-c4cnn(C)c4)cc3)CC2)cc1NC(=O)c1ccncc1F [Compound 161, 3-fluoro-N-(2-methyl-5-(4-(4-(1-methyl-1H-pyrazol-4-yl)phenyl)piperidine-1-carbonyl)phenyl)isonicotinamide] | 0.024 µM | 0.0389 µM | 0.0214 µM | 101% | 3.72 µM
7 | Cc1ccc(C(=O)N2CCC(c3ccc(-c4cnn(C)c4)cc3)CC2)cc1NC(=O)c1cnc(NC2CCC2)nc1 [Compound 162, 2-(cyclobutylamino)-N-(2-methyl-5-(4-(4-(1-methyl-1H-pyrazol-4-yl)phenyl)piperidine-1-carbonyl)phenyl)pyrimidine-5-carboxamide] | 0.00813 µM | 0.0324 µM | 0.02 µM | 101% | ~7.59 µM
8 | Cc1ccc(C(=O)N2CCC(c3ccc(-c4cnn(C)c4)cc3)CC2)cc1NC(=O)c1ccc(N2CCN[C@@H](CO)C2)nc1 [Compound 163, (3R)-6-(3-(hydroxymethyl)piperazin-1-yl)-N-(2-methyl-5-(4-(4-(1-methyl-1H-Pyrazol-4-yl)phenyl)piperidine-1-carbonyl)phenyl)nicotinamide] | 0.0132 µM | 0.0468 µM | 0.0288 µM | 105% | > 10 µM
9 | CCN1CCC(C(=O)Nc2cc(C(=O)N3CCC(c4ccc(-c5cnn(C)c5)cc4)CC3)ccc2C)CC1 [Compound 168, 1-ethyl-N-(2-methyl-5-(4-(4-(1-methyl-1H-pyrazol-4-yl)phenyl)piperidine-1-carbonyl)phenyl)piperidine-4-carboxamide] | 0.0724 µM | 0.126 µM | 0.0617 µM | 113% | > 10 µM
10 | Cc1ccc(C(=O)N2CCC(c3ccc(-c4cnn(C)c4)cc3)CC2)cc1NC(=O)C1CCN(C)CC1 [Compound 169, 1-methyl-N-(2-methyl-5-(4-(4-(1-methyl-1H-pyrazol-4-yl)phenyl)piperidine-1-carbonyl)phenyl)piperidine-4-carboxamide] | 0.0776 µM | 0.191 µM | 0.0708 µM | 106% | > 10 µM
11 | Cc1ccc(C(=O)N2CCC(c3ccc(-c4cnn(C)c4)cc3)CC2)cc1NC(=O)C1CCNC1 (stereo not shown) [Compound 170, N-(2-methyl-5-(4-(4-(1-methyl-1H-pyrazol-4-yl)phenyl)piperidine-1-carbonyl)phenyl)pyrrolidine-3-carboxamide] | 0.302 µM | 0.339 µM | 0.0575 µM | 112% | > 10 µM
12 | Cc1ccc(C(=O)N2CCC(c3ccc(-c4cnn(C)c4)cc3)CC2)cc1NC(=O)[C@@H]1CCCN1 [Compound 171, (S)—N-(2-methyl-5-(4-(4-(1-methyl-1H-pyrazol-4-yl)phenyl)piperidine-1-carbonyl)phenyl)pyrrolidine-2-carboxamide] | 1.2 µM | 1 µM | 0.891 µM | 84% | > 10 µM
13 | Cc1ccc(C(=O)N2CCC(c3ccc(-c4cnn(C)c4)cc3)CC2)cc1NC(=O)[C@H]1CCCN1 [Compound 172, (R)—N-(2-methyl-5-(4-(4-(1-methyl-1H-pyrazol-4-yl)phenyl)piperidine-1-carbonyl)phenyl)pyrrolidine-2-carboxamide] | 0.794 µM | 0.741 µM | 0.49 µM | 91% | > 10 µM
14 | Cc1ccc(C(=O)N2CCC(c3ccc(-c4cnn(C)c4)cc3)CC2)cc1NC(=O)c1cncs1 [Compound 174, N-(2-methyl-5-(4-(4-(1-methyl-1H-pyrazol-4-yl)phenyl)piperidine-1-carbonyl)phenyl)thiazole-5-carboxamide] | 0.141 µM | 0.135 µM | 0.0603 µM | 103% | > 10 µM
15 | CCCCC(C)N1CCC(C(=O)Nc2cc(C(=O)N3CCC(c4ccc(-c5cnn(C)c5)cc4)CC3)ccc2C)CC1 (stereo not shown) [Compound 175, 1-(hexan-2-yl)-N-(2-methyl-5-(4-(4-(1-methyl-1H-pyrazol-4-yl)phenyl)piperidine-1-carbonyl)phenyl)piperidine-4-carboxamide] | 0.0389 µM | 0.0776 µM | 0.049 µM | 108% | ~10 µM
16 | CCCCCN1CCC(C(=O)Nc2cc(C(=O)N3CCC(c4ccc(-c5cnn(C)c5)cc4)CC3)ccc2C)CC1 [Compound 176, N-(2-methyl-5-(4-(4-(1-methyl-1H-pyrazol-4-yl)phenyl)piperidine-1-carbonyl)phenyl)-1-pentylpiperidine-4-carboxamide] | 0.0537 µM | 0.105 µM | 0.0339 µM | 110% | ~10 µM
17 | Cc1ccc(C(=O)N2CCC(c3ccc(-c4cnn(C)c4)cc3)CC2)cc1NC(=O)C1CCN(C2CCCCC2)CC1 [Compound 177, 1-cyclohexyl-N-(2-methyl-5-(4-(4-(1-methyl-1H-pyrazol-4-yl)phenyl)piperidine-1-carbonyl)phenyl)piperidine-4-carboxamide] | 0.0138 µM | 0.0501 µM | 0.0257 µM | 112% | > 10 µM
18 | Cc1ccc(C(=O)N2CCC(c3ccc(-c4cnn(C)c4)cc3)CC2)cc1NC(=O)C1CCN(CC(C)(C)C)CC1 [Compound 178, N-(2-methyl-5-(4-(4-(1-methyl-1H-pyrazol-4-yl)phenyl)piperidine-1-carbonyl)phenyl)-1-neopentylpiperidine-4-carboxamide] | 0.0269 µM | 0.0589 µM | 0.0457 µM | 106% | > 10 µM
19 | Cc1ccc(C(=O)N2CCC(c3ccc(-c4cnn(C)c4)cc3)CC2)cc1NC(=O)C1CCN(CC(C)C)CC1 [Compound 179, 1-isobutyl-N-(2-methyl-5-(4-(4-(1-methyl-1H-pyrazol-4-yl)phenyl)piperidine-1-carbonyl)phenyl)piperidine-4-carboxamide] | 0.0575 µM | 0.0372 µM | 0.0263 µM | 108% | > 6.17 µM
20 | Cc1ccc(C(=O)N2CCC(c3ccc(-c4cnn(C)c4)cc3)CC2)cc1NC(=O)C1CCN(C2CCCC2)CC1 [Compound 180, 1-cyclopentyl-N-(2-methyl-5-(4-(4-(1-methyl-1H-pyrazol-4-yl)phenyl)piperidine-1-carbonyl)phenyl)piperidine-4-carboxamide] | 0.0166 µM | 0.0407 µM | 0.0251 µM | 104% | > 10 µM
